These compounds were tested against T1, HPK1 kinase (aa1-346, Life Technologies) (Homo sapiens, UniProt Q92918) (assay: HPK Kinase Activity Assay at 1 mM ATP (TR-FRET)). Conditions: HPK1 kinase 40 nM, 0.5 μM STK1 substrate, read-out: Enzymatic activity IC50.
T1 construct: HPK1 kinase (aa1-346, Life Technologies); purchased Life Technologies
T1 sequence (Q92918 1-346): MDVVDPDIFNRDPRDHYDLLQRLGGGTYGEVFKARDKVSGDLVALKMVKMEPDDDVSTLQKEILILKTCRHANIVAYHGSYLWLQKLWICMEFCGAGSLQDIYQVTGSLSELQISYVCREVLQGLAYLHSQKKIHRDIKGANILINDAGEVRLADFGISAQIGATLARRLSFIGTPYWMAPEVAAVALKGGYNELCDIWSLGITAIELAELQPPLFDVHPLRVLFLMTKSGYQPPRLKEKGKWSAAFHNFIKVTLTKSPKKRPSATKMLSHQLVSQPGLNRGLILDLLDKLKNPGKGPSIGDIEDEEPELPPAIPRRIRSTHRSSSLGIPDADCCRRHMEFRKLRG
Assay type: biochemical
Description: HPK Kinase Activity Assay at 1 mM ATP
Compounds disclosed herein were tested for inhibition of HPK1 kinase (aa1-346, Life Technologies) activity in assays based on the time-resolved fluorescence-resonance energy transfer (TR-FRET) methodology. The assays were carried out in 384-well low volume black plates in a reaction mixture containing HPK1 kinase (40 nM), 1 mM ATP, 0.5 μM STK1 substrate and 0-10 μM compound in buffer containing 50 mM HEPES, 0.01% BSA, 0.1 mM Orthovanadate, 10 mM MgCl2, 1 mM DTT, pH=7.0, 0.005% Tween-20. The kinase was incubated with the compounds disclosed herein or DMSO for 60 minutes at room temperature and the reaction was initiated by the addition of ATP and STK1 substrate. After reaction at room temperature for 120 minutes, an equal volume of stop/detection solution was added according to the manufacture's instruction (CisBio). The stop/detection solution contained STK Antibody-Cryptate and XL665-conjugated streptavidin in Detection Buffer. The TR-FRET signals (ratio of fluorescence emission at 665 nm over emission at 620 nm with excitation at 337 nm wavelength) were recorded on a PHERAstar FS plate reader (BMG Labtech). Phosphorylation of STK1 substrate led to the binding of STK Antibody-Cryptate to the biotinylated STK1 substrate, which places fluorescent donor (Eu^3+ crypate) in close proximity to the accepter (Streptavidin-XL665), thus resulting in a high degree of fluorescence resonance energy transfer. The inhibition of HPK1 in presence of increasing concentrations of compounds was calculated based on the ratio of fluorescence at 665 nm to that at 620 nm. The IC50 for each compound was derived from fitting the data to the four-parameter logistic equation by Graphpad Prism software.

Row | IC50 | SMILES
1 | 12 nM | Cc1cc(-c2cnc(N)c(Oc3cnn(C4CCN(C)C4)c3)n2)cc2c1CCN(C)C2 (single isomer, unassigned) [Example 280A]
2 | 51 nM | Cc1cc(-c2cnc(N)c(Oc3cnn(C4CCN(C)C4)c3)n2)cc2c1CCN(C)C2 (single isomer, unassigned) [Example 280B]
3 | 29 nM | Cc1cc(-c2cnc(N)c(OCc3ccncc3)n2)cc2c1CCN(C)C2 [Example 1, 5-(2,5-dimethyl-1,2,3,4-tetrahydroisoquinolin-7-yl)-3-(pyridin-4-ylmethoxy)pyrazin-2-amine]
4 | 364 nM | Cc1cc(-c2cnc(N)c(OCc3ccncn3)n2)cc2c1CCN(C)C2 [Example 3, 5-(2,5-dimethyl-1,2,3,4-tetrahydroisoquinolin-7-yl)-3-(pyrimidin-4-ylmethoxy)pyrazin-2-amine]
5 | 75 nM | Cc1cc(-c2cnc(N)c(-n3ncc4cc(CO)ccc43)n2)cc2c1CCN(C)C2 [Example 4, (1-(3-amino-6-(2,5-dimethyl-1,2,3,4-tetrahydroisoquinolin-7-yl)pyrazin-2-yl)-1H-indazol-5-yl)methanol]
6 | 172 nM | Cc1cc(-c2cnc(N)c(-n3cc4cc(CO)ccc4n3)n2)cc2c1CCN(C)C2 [Example 5, (2-(3-amino-6-(2,5-dimethyl-1,2,3,4-tetrahydroisoquinolin-7-yl)pyrazin-2-yl)-2H-indazol-5-yl)methanol]
7 | 15 nM | Cc1cc(-c2cnc(N)c(-n3cc(O)cn3)n2)cc2c1CCN(C)C2 [Example 7, 1-(3-amino-6-(2,5-dimethyl-1,2,3,4-tetrahydroisoquinolin-7-yl)pyrazin-2-yl)-1H-pyrazol-4-ol]
8 | 46 nM | Cc1cc(-c2cnc(N)c(OCc3ccncc3F)n2)cc2c1CCN(C)C2 [Example 8, 5-(2,5-dimethyl-1,2,3,4-tetrahydroisoquinolin-7-yl)-3-((3-fluoropyridin-4-yl)methoxy)pyrazin-2-amine]
9 | 17 nM | Cc1cnccc1COc1nc(-c2cc(C)c3c(c2)CN(C)CC3)cnc1N [Example 9, 5-(2,5-dimethyl-1,2,3,4-tetrahydroisoquinolin-7-yl)-3-((3-methylpyridin-4-yl)methoxy)pyrazin-2-amine]
10 | 5.2 nM | Cc1cc(-c2cnc(N)c(OCc3ccnc(N)c3)n2)cc2c1CCN(C)C2 [Example 10, 3-((2-aminopyridin-4-yl)methoxy)-5-(2,5-dimethyl-1,2,3,4-tetrahydroisoquinolin-7-yl)pyrazin-2-amine]
11 | 50 nM | Cc1cc(-c2cnc(N)c(OCc3ccnc(C#CC4CC4)c3)n2)cc2c1CCN(C)C2 [Example 11, 3-((2-(cyclopropylethynyl)pyridin-4-yl)methoxy)-5-(2,5-dimethyl-1,2,3,4-tetrahydroisoquinolin-7-yl)pyrazin-2-amine]
12 | 27 nM | Cc1cc(-c2cnc(N)c(OCc3cc(Cl)ncc3OC(C)C)n2)cc2c1CCN(C)C2 [Example 12, 3-((2-chloro-5-isopropoxypyridin-4-yl)methoxy)-5-(2,5-dimethyl-1,2,3,4-tetrahydroisoquinolin-7-yl)pyrazin-2-amine]
13 | 62 nM | Cc1cc(-c2cnc(N)c(OC3CCc4cnccc43)n2)cc2c1CCN(C)C2 (stereo not shown) [Example 13, 3-(6,7-dihydro-5H-cyclopenta[c]pyridin-5-yloxy)-5-(2,5-dimethyl-1,2,3,4-tetrahydroisoquinolin-7-yl)pyrazin-2-amine]
14 | 9.4 nM | Cc1cc(-c2cnc(N)c(OCc3ccnc(C#CC(C)(C)O)c3)n2)cc2c1CCN(C)C2 [Example 14, 4-(4-(((3-amino-6-(2,5-dimethyl-1,2,3,4-tetrahydroisoquinolin-7-yl)pyrazin-2-yl)oxy)methyl)pyridin-2-yl)-2-methylbut-3-yn-2-ol]
15 | 157 nM | Cc1cc(-c2cnc(N)c(OCc3cccnc3)n2)cc2c1CCN(C)C2 [Example 15, 5-(2,5-dimethyl-1,2,3,4-tetrahydroisoquinolin-7-yl)-3-(pyridin-3-ylmethoxy)pyrazin-2-amine]
16 | 231 nM | Cc1cc(-c2cnc(N)c(OCc3c(Cl)cccc3Cl)n2)cc2c1CCN(C)C2 [Example 17, 3-((2,6-dichlorobenzyl)oxy)-5-(2,5-dimethyl-1,2,3,4-tetrahydroisoquinolin-7-yl)pyrazin-2-amine]

Row | IC50 | SMILES
17 | 73 nM | Cc1cc(-c2cnc(N)c(OCc3ccccc3)n2)cc2c1CCN(C)C2 [Example 18, 3-(benzyloxy)-5-(2,5-dimethyl-1,2,3,4-tetrahydroisoquinolin-7-yl)pyrazin-2-amine]
18 | 98 nM | Cc1cc(-c2cnc(N)c(OCc3ccnc(C#Cc4cccnc4)c3)n2)cc2c1CCN(C)C2 [Example 19, 5-(2,5-dimethyl-1,2,3,4-tetrahydroisoquinolin-7-yl)-3-((2-(pyridin-3-ylethynyl)pyridin-4-yl)methoxy)pyrazin-2-amine]
19 | 151 nM | Cc1cc(-c2cnc(N)c(OCc3ccnc(C#Cc4ccc(F)cc4)c3)n2)cc2c1CCN(C)C2 [Example 20, 5-(2,5-dimethyl-1,2,3,4-tetrahydroisoquinolin-7-yl)-3-((2-((4-fluorophenyl)ethynyl)pyridin-4-yl)methoxy)pyrazin-2-amine]
20 | 35 nM | Cc1cc(-c2cnc(N)c(OCc3ccncc3Cl)n2)cc2c1CCN(C)C2 [Example 21, 3-((3-chloropyridin-4-yl)methoxy)-5-(2,5-dimethyl-1,2,3,4-tetrahydroisoquinolin-7-yl)pyrazin-2-amine]
21 | 38 nM | Cc1cc(-c2cnc(N)c(OCc3ccnc4ccccc34)n2)cc2c1CCN(C)C2 [Example 22, 5-(2,5-dimethyl-1,2,3,4-tetrahydroisoquinolin-7-yl)-3-(quinolin-4-ylmethoxy)pyrazin-2-amine]
22 | 137 nM | Cc1cc(-c2cnc(N)c(OCc3ccnc(C#Cc4ccncc4)c3)n2)cc2c1CCN(C)C2 [Example 23, 5-(2,5-dimethyl-1,2,3,4-tetrahydroisoquinolin-7-yl)-3-((2-(pyridin-4-ylethynyl)pyridin-4-yl)methoxy)pyrazin-2-amine]
23 | 61 nM | Cc1cc(-c2cnc(N)c(OCc3ccnc(C#CC(C)(C)C)c3)n2)cc2c1CCN(C)C2 [Example 24, 5-(2,5-dimethyl-1,2,3,4-tetrahydroisoquinolin-7-yl)-3-((2-(3,3-dimethylbut-1-yn-1-yl)pyridin-4-yl)methoxy)pyrazin-2-amine]
24 | 13 nM | CC#Cc1cc(COc2nc(-c3cc(C)c4c(c3)CN(C)CC4)cnc2N)ccn1 [Example 25, 5-(2,5-dimethyl-1,2,3,4-tetrahydroisoquinolin-7-yl)-3-((2-(prop-1-ynyl)pyridin-4-yl)methoxy)pyrazin-2-amine]
25 | 113 nM | Cc1cc(-c2cnc(N)c(OC3CCCc4cnccc43)n2)cc2c1CCN(C)C2 (stereo not shown) [Example 26, 5-(2,5-dimethyl-1,2,3,4-tetrahydroisoquinolin-7-yl)-3-(5,6,7,8-tetrahydroisoquinolin-5-yloxy)pyrazin-2-amine]
26 | 16 nM | Cc1cc(-c2cnc(N)c(OCc3ccnc(N)c3C)n2)cc2c1CCN(C)C2 [Example 29, 3-((2-amino-3-methylpyridin-4-yl)methoxy)-5-(2,5-dimethyl-1,2,3,4-tetrahydroisoquinolin-7-yl)pyrazin-2-amine]
27 | 7.6 nM | Cc1cc(-c2cnc(N)c(OCc3ccncc3OC(C)C)n2)cc2c1CCN(C)C2 [Example 30, 5-(2,5-dimethyl-1,2,3,4-tetrahydroisoquinolin-7-yl)-3-((3-isopropoxypyridin-4-yl)methoxy)pyrazin-2-amine]
28 | 25 nM | Cc1cc(-c2cnc(N)c(OCc3ccnc(N)c3)n2)cc2c1CN(C)CC2 [Example 31, 3-((2-aminopyridin-4-yl)methoxy)-5-(2,8-dimethyl-1,2,3,4-tetrahydroisoquinolin-6-yl)pyrazin-2-amine]
29 | 5.1 nM | Cc1cnc(N)cc1COc1nc(-c2cc(C)c3c(c2)CN(C)CC3)cnc1N [Example 32, 3-((2-amino-5-methylpyridin-4-yl)methoxy)-5-(2,5-dimethyl-1,2,3,4-tetrahydroisoquinolin-7-yl)pyrazin-2-amine]
30 | 8.2 nM | Cc1cc(-c2cnc(N)c(OCc3ccncc3OCc3ccccc3)n2)cc2c1CCN(C)C2 [Example 33, 3-((3-(benzyloxy)pyridin-4-yl)methoxy)-5-(2,5-dimethyl-1,2,3,4-tetrahydroisoquinolin-7-yl)pyrazin-2-amine]
31 | 12 nM | Cc1cc(-c2cnc(N)c(OCc3ccnc4[nH]ccc34)n2)cc2c1CCN(C)C2 [Example 34, 3-((1H-pyrrolo[2,3-b]pyridin-4-yl)methoxy)-5-(2,5-dimethyl-1,2,3,4-tetrahydroisoquinolin-7-yl)pyrazin-2-amine]

From patent US12673933B2, “Aminopyrazine compounds as HPK1 inhibitor and the use thereof” (BEIGENE, LTD., priority 2019, dated 2026)
